Consider 38 molecules from US11279687B2, “Compounds and compositions for the inhibition of NAMPT” (Valo Health, Inc., priority 2010, dated 2022).

The target of one assay is NAMPT (Homo sapiens (Human), UniProt P43490). In words: NAMPT biochemical inhibition assay (NMN quantified by mass spectrometry). To be noted: NAMPT biochemical inhibition; read-out: Biochem IC50.
In a further assay the test system is A2780 cells. Briefly: In-vitro cell proliferation assay (SRB), A2780 cells.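 Note: viable cell number read as SRB absorbance, background from media-only wells subtracted, IC50 interpolated from percent inhibition at two bracketing compound concentrations.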 The format is cell-based. The following applies: Homo sapiens, A2780, 72 h, A2780 cells, 72 hours, SRB; read-out: A2780 IC50.

Sequence of NAMPT (P43490 whole entry): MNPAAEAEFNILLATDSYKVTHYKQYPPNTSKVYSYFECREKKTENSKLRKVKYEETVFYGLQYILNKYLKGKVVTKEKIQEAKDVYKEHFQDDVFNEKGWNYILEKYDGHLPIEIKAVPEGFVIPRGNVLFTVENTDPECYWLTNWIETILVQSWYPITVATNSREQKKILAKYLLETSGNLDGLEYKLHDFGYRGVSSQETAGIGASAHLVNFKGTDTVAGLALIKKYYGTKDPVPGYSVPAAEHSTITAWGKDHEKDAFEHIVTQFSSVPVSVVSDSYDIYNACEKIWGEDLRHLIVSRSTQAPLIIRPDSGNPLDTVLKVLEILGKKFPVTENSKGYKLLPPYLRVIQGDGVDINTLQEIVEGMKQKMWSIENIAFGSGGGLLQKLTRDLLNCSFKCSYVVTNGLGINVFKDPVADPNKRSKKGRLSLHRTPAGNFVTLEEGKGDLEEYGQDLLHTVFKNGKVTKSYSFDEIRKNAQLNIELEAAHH

Consider `COc1ccc(NS(=O)(=O)c2ccc(NC(=O)NCc3cccnc3)cc2)cc1OC` [3-{4-[(3,4-dimethoxyphenyl)sulfamoyl]phenyl]-1-(pyridin-3-ylmethyl)urea], for which the IC50 – broadly, the concentration needed to halve the response being measured – on NAMPT stood at 5 nM; in the assay with A2780 cells, 116 nM.

As to `Cc1ccc(NS(=O)(=O)c2ccc(NC(=O)NCc3cccnc3)cc2)cc1C` [3-{4-[(3,4-dimethylphenyl)sulfamoyl]phenyl}-1-(pyridin-3-ylmethyl)urea], the IC50 turned out to be 3 nM on NAMPT and 93 nM in the assay with A2780 cells.

Turning to `O=C(NCc1cccnc1)Nc1ccc(S(=O)(=O)c2cc(Cl)cc(Cl)c2)cc1` [3-{4-[(3,5-dichlorobenzene)sulfonyl]phenyl}-1-(pyridin-3-ylmethyl)urea], the figures for the concentration for half-maximal inhibition (IC50) at NAMPT and in the assay on A2780 cells were 1.9 nM and 100 to 1000 nM, respectively.

Take `O=C(NCc1cccnc1)Nc1ccc(S(=O)(=O)c2cc(F)cc(F)c2)cc1` [3-{4-[(3,5-difluorobenzene)sulfonyl]phenyl}-1-(pyridin-3-ylmethyl)urea]: the figures for the IC50 on NAMPT and in the assay with A2780 cells were 3 nM and 284 nM, respectively.

On to `COc1cc(NS(=O)(=O)c2ccc(NC(=O)NCc3cccnc3)cc2)cc(OC)c1` [3-{4-[(3,5-dimethoxyphenyl)sulfamoyl]phenyl}-1-(pyridin-3-ylmethyl)urea], for which the IC50 at NAMPT was determined as 5 nM; in the assay with A2780 cells, 96 nM.

As to `Cc1cc(C)cc(S(=O)(=O)c2ccc(NC(=O)NCc3cccnc3)cc2)c1` [3-{4-[(3,5-dimethylbenzene)sulfonyl]phenyl}-1-(pyridin-3-ylmethyl)urea], the IC50 is 1 nM on NAMPT and 40 nM in the assay with A2780 cells.

With `Cc1cc(C)cc(NS(=O)(=O)c2ccc(NC(=O)NCc3cccnc3)cc2)c1` [3-{4-[(3,5-dimethylphenyl)sulfamoyl]phenyl}-1-(pyridin-3-ylmethyl)urea], the figures for the IC50 at NAMPT and in the assay with A2780 cells were 1 nM and 41 nM, respectively.

On to `CC(=O)c1cccc(S(=O)(=O)c2ccc(NC(=O)NCc3cccnc3)cc2)c1` [3-{4-[(3-acetylbenzene)sulfonyl]phenyl}-1-(pyridin-3-ylmethyl)urea], for which the IC50 at NAMPT is 2.1 nM; with A2780 cells it was 100 to 1000 nM.

For `CS(=O)(=O)N(c1cccc(N)c1)S(=O)(=O)c1ccc(NC(=O)NCc2cccnc2)cc1` [3-{4-[(3-aminophenyl)(methanesulfonyl)sulfamoyl]phenyl}-1-(pyridin-3-ylmethyl)urea], the figures for the IC50 on NAMPT and in the assay with A2780 cells were 3 nM and 110 nM, respectively.

Consider `O=C(NCc1cccnc1)Nc1ccc(S(=O)(=O)c2cccc(Br)c2)cc1` [3-{4-[(3-bromobenzene)sulfonyl]phenyl}-1-(pyridin-3-ylmethyl)urea], for which the IC50 at NAMPT came out at 2 nM; in the assay on A2780 cells it was 322 nM.

Take `COc1ccc(S(=O)(=O)c2ccc(NC(=O)NCc3cccnc3)cc2)cc1Cl` [3-{4-[(3-chloro-4-methoxybenzene)sulfonyl]phenyl}-1-(pyridin-3-ylmethyl)urea]: the IC50 came to 1.3 nM on NAMPT and 92.9 nM in the assay on A2780 cells.

`Cc1ccc(S(=O)(=O)c2ccc(NC(=O)NCc3cccnc3)cc2)cc1Cl` [3-{4-[(3-chloro-4-methylbenzene)sulfonyl]phenyl}-1-(pyridin-3-ylmethyl)urea]: the IC50 at NAMPT is 0.9 nM; in the assay on A2780 cells, 100 to 1000 nM.

Regarding `Cc1ccc(NS(=O)(=O)c2ccc(NC(=O)NCc3cccnc3)cc2)cc1Cl` [3-{4-[(3-chloro-4-methylphenyl)sulfamoyl]phenyl}-1-(pyridin-3-ylmethyl)urea], the values for the IC50 at NAMPT and in the assay on A2780 cells were 1.4 nM and 26 nM, respectively.

Take `CCCOc1ccc(S(=O)(=O)c2ccc(NC(=O)NCc3cccnc3)cc2)cc1Cl` [3-{4-[(3-chloro-4-propoxybenzene)sulfonyl]phenyl}-1-(pyridin-3-ylmethyl)urea]: the IC50 on NAMPT was 4.6 nM; in the assay with A2780 cells, 100 to 1000 nM.

On to `COc1cc(Cl)cc(S(=O)(=O)c2ccc(NC(=O)NCc3cccnc3)cc2)c1` [3-{4-[(3-chloro-5-methoxybenzene)sulfonyl]phenyl}-1-(pyridin-3-ylmethyl)urea], for which the half-maximal inhibitory concentration (IC50) came out at 1.3 nM on NAMPT and 27.2 nM in the assay with A2780 cells.

As for `Cc1cc(Cl)cc(S(=O)(=O)c2ccc(NC(=O)NCc3cccnc3)cc2)c1` [3-{4-[(3-chloro-5-methylbenzene)sulfonyl]phenyl}-1-(pyridin-3-ylmethyl)urea], the IC50 came to 1.8 nM at NAMPT and 67.1 nM with A2780 cells.

Take `O=C(NCc1cccnc1)Nc1ccc(S(=O)(=O)c2cccc(Cl)c2)cc1` [3-{4-[(3-chlorobenzene)sulfonyl]phenyl}-1-(pyridin-3-ylmethyl)urea]: the IC50 at NAMPT is 3 nM; with A2780 cells, 518 nM.

On to `CCS(=O)(=O)Nc1cccc(S(=O)(=O)c2ccc(NC(=O)NCc3cccnc3)cc2)c1` [3-{4-[(3-ethanesulfonamidobenzene)sulfonyl]phenyl}-1-(pyridin-3-ylmethyl)urea], for which the IC50 was 1.1 nM at NAMPT and 69.5 nM in the assay with A2780 cells.

Consider `CCOc1cc(S(=O)(=O)c2ccc(NC(=O)NCc3cccnc3)cc2)ccc1F` [3-{4-[(3-ethoxy-4-fluorobenzene)sulfonyl]phenyl}-1-(pyridin-3-ylmethyl)urea], for which the IC50 at NAMPT turned out to be 3.9 nM; with A2780 cells, 28.3 nM.

In the case of `CCOc1cccc(S(=O)(=O)c2ccc(NC(=O)NCc3cccnc3)cc2)c1` [3-{4-[(3-ethoxybenzene)sulfonyl]phenyl}-1-(pyridin-3-ylmethyl)urea], the IC50 amounted to 1.7 nM on NAMPT and 83.7 nM with A2780 cells.

For `CCc1cccc(S(=O)(=O)c2ccc(NC(=O)NCc3cccnc3)cc2)c1` [3-{4-[(3-ethylbenzene)sulfonyl]phenyl}-1-(pyridin-3-ylmethyl)urea], the IC50 on NAMPT is 2 nM; in the assay on A2780 cells it was 70.8 nM.

For `COc1ccc(S(=O)(=O)c2ccc(NC(=O)NCc3cccnc3)cc2)cc1F` [3-{4-[(3-fluoro-4-methoxybenzene)sulfonyl]phenyl}-1-(pyridin-3-ylmethyl)urea], the IC50 on NAMPT was 2 nM; in the assay on A2780 cells, 173 nM.

Regarding `Cc1ccc(S(=O)(=O)c2ccc(NC(=O)NCc3cccnc3)cc2)cc1F` [3-{4-[(3-fluoro-4-methylbenzene)sulfonyl]phenyl}-1-(pyridin-3-ylmethyl)urea], the IC50 at NAMPT worked out at 1 nM; with A2780 cells, 206 nM.

Regarding `CCCOc1ccc(S(=O)(=O)c2ccc(NC(=O)NCc3cccnc3)cc2)cc1F` [3-{4-[(3-fluoro-4-propoxybenzene)sulfonyl]phenyl}-1-(pyridin-3-ylmethyl)urea], the figures for the IC50 on NAMPT and in the assay on A2780 cells were 1.3 nM and 58.5 nM, respectively.

`COc1cc(F)cc(S(=O)(=O)c2ccc(NC(=O)NCc3cccnc3)cc2)c1` [3-{4-[(3-fluoro-5-methoxybenzene)sulfonyl]phenyl}-1-(pyridin-3-ylmethyl)urea]: the results for the IC50 on NAMPT and in the assay on A2780 cells were 1.7 nM and 100 to 1000 nM, respectively.

On to `Cc1cc(F)cc(S(=O)(=O)c2ccc(NC(=O)NCc3cccnc3)cc2)c1` [3-{4-[(3-fluoro-5-methylbenzene)sulfonyl]phenyl}-1-(pyridin-3-ylmethyl)urea], for which the IC50 at NAMPT was found to be 1.7 nM; in the assay on A2780 cells, 99.3 nM.

As to `O=C(NCc1cccnc1)Nc1ccc(S(=O)(=O)c2cccc(F)c2)cc1` [3-{4-[(3-fluorobenzene)sulfonyl]phenyl}-1-(pyridin-3-ylmethyl)urea], the IC50 on NAMPT is 1 nM; in the assay on A2780 cells, 238 nM.

As for `CS(=O)(=O)c1cccc(S(=O)(=O)c2ccc(NC(=O)NCc3cccnc3)cc2)c1` [3-{4-[(3-methanesulfonylbenzene)sulfonyl]phenyl}-1-(pyridin-3-ylmethyl)urea], the IC50 at NAMPT was 6.6 nM; with A2780 cells, 100 to 1000 nM.

With `COc1cc(S(=O)(=O)c2ccc(NC(=O)NCc3cccnc3)cc2)ccc1C` [3-{4-[(3-methoxy-4-methylbenzene)sulfonyl]phenyl}-1-(pyridin-3-ylmethyl)urea], the IC50 at NAMPT amounted to 2.7 nM; in the assay with A2780 cells, 17.9 nM.

With `COc1cc(NS(=O)(=O)c2ccc(NC(=O)NCc3cccnc3)cc2)ccc1C` [3-{4-[(3-methoxy-4-methylphenyl)sulfamoyl]phenyl}-1-(pyridin-3-ylmethyl)urea], the IC50 on NAMPT came out at 4 nM; with A2780 cells, 148 nM.

For the molecule `Cc1cccc(S(=O)(=O)c2ccc(NC(=O)NCc3cccnc3)cc2)c1` [3-{4-[(3-methylbenzene)sulfonyl]phenyl}-1-(pyridin-3-ylmethyl)urea], the IC50 on NAMPT amounted to 2 nM; in the assay on A2780 cells, 157 nM.

On to `CCCOc1cccc(S(=O)(=O)c2ccc(NC(=O)NCc3cccnc3)cc2)c1` [3-{4-[(3-propoxybenzene)sulfonyl]phenyl}-1-(pyridin-3-ylmethyl)urea], for which the IC50 on NAMPT was 3.8 nM; with A2780 cells it was 100 to 1000 nM.

With `Cc1cccc(N2CCN(S(=O)(=O)c3ccc(NC(=O)NCc4cccnc4)cc3)C[C@@H]2C)c1` [3-{4-[(3S)-3-methyl-4-(3-methylphenyl)piperazine-1-sulfonyl]phenyl}-1-(pyridin-3-ylmethyl)urea], the IC50 worked out at 3 nM at NAMPT and 34 nM in the assay on A2780 cells.

On to `Cc1ccc(N2CCN(S(=O)(=O)c3ccc(NC(=O)NCc4cccnc4)cc3)C[C@@H]2C)cc1` [3-{4-[(3S)-3-methyl-4-(4-methylphenyl)piperazine-1-sulfonyl]phenyl}-1-(pyridin-3-ylmethyl)urea], for which the half-inhibitory concentration (IC50) at NAMPT was found to be 4 nM; in the assay on A2780 cells, 95 nM.

As for `CC(=O)c1ccc(S(=O)(=O)c2ccc(NC(=O)NCc3cccnc3)cc2)cc1` [3-{4-[(4-acetylbenzene)sulfonyl]phenyl}-1-(pyridin-3-ylmethyl)urea], the IC50 on NAMPT is 2 nM; in the assay on A2780 cells, 100 to 1000 nM.

`CC(=O)c1ccc(NS(=O)(=O)c2ccc(NC(=O)NCc3cccnc3)cc2)cc1` [3-{4-[(4-acetylphenyl)sulfanoyl]phenyl}-1-(pyridin-3-ylmethyl)urea]: the IC50 on NAMPT is 14.4 nM; in the assay on A2780 cells it was 1000 to 10000 nM.

For `O=C(NCc1cccnc1)Nc1ccc(S(=O)(=O)c2ccc(Br)cc2)cc1` [3-{4-[(4-bromobenzene)sulfonyl]phenyl}-1-(pyridin-3-ylmethyl)urea], the IC50 on NAMPT came out at 3 nM; in the assay on A2780 cells, 239 nM.

Take `O=C(NCc1cccnc1)Nc1ccc(S(=O)(=O)c2ccc(Cl)cc2F)cc1` [3-{4-[(4-chloro-2-fluorobenzene)sulfonyl]phenyl}-1-(pyridin-3-ylmethyl)urea]: the IC50 at NAMPT turned out to be 2 nM; in the assay on A2780 cells it was 415 nM.
